Measurements taken from ChEMBL document CHEMBL2412960, “Inhibition of Mycobacterium tuberculosis strains H37Rv and MDR MS-115 by a new set of C5 modified pyrimidine nucleosides” (Bioorg Med Chem, 2013).
In brackets after ≈: the same amount, converted by molar mass. Activity calls are given as the source filed them. The calls are words filed in the database; no cut-off is given here.

What was measured:
[1] = tested on: Mycobacterium tuberculosis; experiment: Bacteriostatic activity against rifampicin, isoniazid, streptomycin, ethambutol and pyrazinamide-resistant Mycobacterium tuberculosis MS-115 assessed as growth inhibition at 20 ug/mL relative to control; type: functional; details: read-out: GI
[2] = tested on: Mycobacterium tuberculosis; experiment: Bacteriostatic activity against rifampicin, isoniazid, streptomycin, ethambutol and pyrazinamide-resistant Mycobacterium tuberculosis MS-115 assessed as growth inhibition at 50 ug/mL relative to control; type: functional; details: read-out: GI
[3] = tested on: Mycobacterium tuberculosis; experiment: Bacteriostatic activity against rifampicin, isoniazid, streptomycin, ethambutol and pyrazinamide-resistant Mycobacterium tuberculosis MS-115 assessed as growth inhibition; type: functional
[4] = tested on: Mycobacterium tuberculosis; experiment: Bacteriostatic activity against rifampicin, isoniazid, streptomycin, ethambutol and pyrazinamide-resistant Mycobacterium tuberculosis MS-115 assessed as growth inhibition at 10 ug/mL relative to control; type: functional; details: read-out: GI
[5] = tested on: Mycobacterium tuberculosis; experiment: Bacteriostatic activity against rifampicin, isoniazid, streptomycin, ethambutol and pyrazinamide-resistant Mycobacterium tuberculosis MS-115 assessed as growth inhibition at 2 to 200 ug/mL relative to control; type: functional, organism-based
[6] = tested on: Mycobacterium tuberculosis; experiment: Bacteriostatic activity against rifampicin, isoniazid, streptomycin, ethambutol and pyrazinamide-resistant Mycobacterium tuberculosis MS-115 assessed as growth inhibition at 200 ug/mL relative to control; type: functional; details: read-out: GI
[7] = tested on: Mycobacterium tuberculosis; experiment: Bacteriostatic activity against rifampicin, isoniazid, streptomycin, ethambutol and pyrazinamide-resistant Mycobacterium tuberculosis MS-115 assessed as growth inhibition at 5 ug/mL relative to control; type: functional; details: read-out: GI
[8] = tested on: Mycobacterium tuberculosis; experiment: Bacteriostatic activity against rifampicin, isoniazid, streptomycin, ethambutol and pyrazinamide-resistant Mycobacterium tuberculosis MS-115 assessed as growth inhibition at 2 ug/mL relative to control; type: functional; details: read-out: GI

Compound	inhibition of growth at 20 µg/mL [1] [%]	inhibition of growth at 50 µg/mL [2] [%]	MIC99 [3]	inhibition of growth at 10 µg/mL [4] [%]	growth inhibition (GI) [5]	inhibition of growth at 200 µg/mL [6] [%]	inhibition of growth at 5 µg/mL [7] [%]	inhibition of growth at 2 µg/mL [8] [%]
CCCCCCCCCCCCc1cn(Cc2cn([C@H]3C[C@H](O)[C@@H](CO)O3)c(=O)nc2N)nn1	100	100	10 µg/mL (≈ 21 µM)	99				
CN[C@@H]1[C@H](O[C@H]2[C@H](O[C@H]3[C@H](O)[C@@H](O)[C@H](N=C(N)N)[C@@H](O)[C@@H]3N=C(N)N)O[C@@H](C)[C@]2(O)C=O)O[C@@H](CO)[C@H](O)[C@H]1O					inactive			
CC[C@@H](CO)NCCN[C@@H](CC)CO					inactive			
NNC(=O)c1ccncc1 [ISONIAZID]			inactive		inactive			
CCCCCCCCCCc1cn(Cc2cn([C@H]3C[C@H](O)[C@@H](CO)O3)c(=O)nc2N)nn1	75	100	50 µg/mL (≈ 111 µM)					
CCCCCCCCCCCCOCc1cn([C@H]2C[C@H](N)[C@@H](CO)O2)c(=O)[nH]c1=O	100	100	20 µg/mL (≈ 47 µM)			100		
CO[C@H]1/C=C/O[C@@]2(C)Oc3c(C)c(O)c4c(O)c(c(/C=N/N5CCN(C)CC5)c(O)c4c3C2=O)NC(=O)/C(C)=C\C=C\[C@H](C)[C@H](O)[C@@H](C)[C@@H](O)[C@@H](C)[C@H](OC(C)=O)[C@@H]1C [RIFAMPIN]			inactive		inactive			
NC(=O)c1cnccn1					inactive			
CCCCCCCCCCc1cn(Cc2cn([C@H]3C[C@H](O)[C@@H](CO)O3)c(=O)[nH]c2=O)nn1	100	100	10 µg/mL (≈ 22.2 µM)	99			75	
CC1COc2c(N3CCN(C)CC3)c(F)cc3c(=O)c(C(=O)O)cn1c23 (centres undefined) [OFLOXACIN]			2 µg/mL (≈ 5.53 µM)					100
CCCCCCCCCCCCc1cn(Cc2cn([C@H]3C[C@H](O)[C@@H](CO)O3)c(=O)[nH]c2=O)nn1	99	100	10 µg/mL (≈ 20.9 µM)	99			90	
CCCCCCCCCCCCOCc1cn([C@H]2C[C@H](O)[C@@H](CO)O2)c(=O)[nH]c1=O		100	50 µg/mL (≈ 117 µM)			100		50
